Measurements taken from patent US20200345049A1, “COMPOSITIONS” (Givaudan, S.A., priority 2017, published 2020).
Where “and” joins values, the source holds several entries; their conditions need not be identical. Equal values may be shown once.

Tests used:
Format in all cases: in vivo, human
[1] = system: expert panel of seven people; assay: Scoring of sweet taste aspects versus base solution (5% sucrose and 0.03% citric acid); settings: for Astringent, average score / Lingering Sweet, average score / Overall Sweet, average score / Upfront Sweet, average score / Volatile Off-Note, average score: score versus base, 0 same, 3 much higher, −3 much lower
[2] = system: expert panel of three people (trained flavourists); assay: Descriptive taste test in 5% sucrose and 0.03% citric acid compared to Luo Han Guo extract; settings: for Taste description: added to 5% sucrose and 0.03% citric acid; for Sweet quality compared to Luo Han Guo extract: in 5% sucrose and 0.03% citric acid
Experimental: (§1) The taste of various concentrations of mixture 1 was tested by an expert panel of three people (trained flavourists) in solutions containing 5% sucrose and 0.03% citric acid. The taste was compared to the Luo Han Guo extract used in Example 2 (obtained from Azile LCC (Rolling Hills Est, California) (extract 1 of Example 1 above) and containing about 68 wt % mogrosides) (combined with the same 5% sucrose and 0.03% citric acid solution).
as §1, with “these sweeteners” for “various concentrations of mixture 1”, “mogrosides).” for “mogrosides) (combined with the same 5% sucrose and 0.03% citric acid solution).”

[3] = system: sweet sensitive taste panel; assay: Sweetness enhancement: sweetener added to 5% (w/v) sucrose, ranked against 5, 6, 6.5 and 7% (w/v) sucrose solutions; settings: for Average Score: ranked against 5, 6, 6.5 and 7% sucrose; for Sweetness enhancer effect: increase in sweetness of 5% (w/v) sucrose greater than sweetness of the sweetener alone
Experimental: This solution was then ranked against 5, 6, 6.5 and 7% (w/v) sucrose solutions. This was repeated for 45 ppm Luo Han Guo extract. The average score of each solution was determined. […] These solutions were then ranked against 5, 6, 6.5 and 7% (w/v) sucrose solutions. The average score of each solution was determined.

[4] = system: sweet sensitive taste panel; assay: Sweetness ranking against sucrose solutions to determine sucrose equivalence
Text: The term “sucrose equivalence” refers to the equivalence in sweetness of a composition containing at least one non-sucrose sweetener to a reference sucrose solution. Typically, taste panellists are trained to detect sweetness of reference sucrose solutions containing between 1% and 15% sucrose (w/v). Other non-sucrose sweeteners may then be tasted at a series of dilutions to determine the concentration of the non-sucrose sweetener that is as sweet (i.e. isosweet) to a given sucrose reference. The term “isosweet” refers to compositions that have equivalent sweetness. Typically, the sweetness of a given composition is measured with reference to a solution of sucrose. See “A Systematic Study of Concentration-Response Relationships of Sweeteners,” G. E. DuBois, D. E. Walters, S. S. Schiffman, Z. S. Warwick, B. J. Booth, S. D. Pecore, K. Gibes, B. T. Carr, and L. M. Brands, in Sweeteners: Discovery, Molecular Design and Chemoreception, D. E. Walters, F. T. Orthoefer, and G. E. DuBois, Eds., American Chemical Society, Washington, D.C. (1991), pp 261-276.
A sweet sensitive taste panel ranked the sweetness of solutions of a mixture of sweeteners (“Mixture 1”) in relation to sucrose solutions at a range of concentrations to determine sucrose equivalence. Mixture 1 was a combination of fractions 11 to 18 of Example 2 and contained 8.16 wt % 11-O-mogroside V and 61.6 wt % mogroside V. The results are shown in Table 6 below.
A sweet sensitive taste panel ranked the sweetness of solutions of various sweeteners (mogroside V, mogroside IV, siamenoside, neomogroside, 11-O-mogroside V) in relation to sucrose solutions at a range of concentrations to determine sucrose equivalence. The sweeteners were obtained using an Agilent 1100 preparative HPLC system with a Phenomenex Luna C18 (2) column (5 μm, 210×21.4 mm).

[5] = system: Four sweet sensitive panelists; assay: Iso-sweet potency versus standard sucrose solutions; settings: for Iso-sweet potency: calculated from mean sweet equivalence concentrations
Experimental: 10 mg iso-mogroside VI (FIG. 7) was dissolved in […] water to make 100 ppm iso-mogroside VI solution. The working solution of 11-epi-mogroside V (FIG. 8) was 374 ppm (9.34 mg 11-epi-mogroside V in 25 mL water), A series of standard sucrose solutions were prepared (0.50, 0.75, 1.00, 1.25, 1.50%) as sweetness references.
Four sweet sensitive panelists evaluated 100 ppm iso-mogroside VI and 374 ppm 11-epi-mogroside V and the sucrose standards, and were asked to give sweet equivalence concentrations to sucrose. The mean sweet equivalence concentrations of each compound were used to calculate the iso-sweet potency.

C[C@H](CC[C@@H](O[C@@H]1O[C@H](CO)[C@@H](O)[C@H](O)[C@H]1O[C@@H]1O[C@H](CO)[C@@H](O)[C@H](O)[C@H]1O)C(C)(C)O)[C@H]1CC[C@@]2(C)[C@H]3CC=C4[C@@H](CC[C@H](O[C@@H]5O[C@H](CO[C@@H]6O[C@H](CO)[C@@H](O)[C@H](O)[C@H]6O)[C@@H](O)[C@H](O)[C@H]5O)C4(C)C)[C@]3(C)[C@H](O)C[C@]12C [Mogroside IV]
Astringent, average score ([1]; Table 16, 30 ppm): 0 | Lingering Sweet, average score ([1]; Table 16, 30 ppm): 0 | Overall Sweet, average score ([1]; Table 16, 30 ppm): 0.4 | Upfront Sweet, average score ([1]; Table 16, 30 ppm): 0.4 | Volatile Off-Note, average score ([1]; Table 16, 30 ppm): 0 | Taste description [2]: good and similar sweetness as mogroside V | Sweet quality compared to Luo Han Guo extract [2]: better than Luo Han Guo extract in terms of sweet quality | Average Score ([3]; 30 ppm in 5% (w/v) sucrose): 6.2 | Total of sweetness ranks ([4]; Table 10, 25 ppm Mogroside IV, 7 panelists): 13 | Total of sweetness ranks ([4]; Table 10, 30 ppm Mogroside IV, 7 panelists): 20

OC[C@H]1O[C@@](CO)(O[C@H]2O[C@H](CO)[C@@H](O)[C@H](O)[C@H]2O)[C@@H](O)[C@@H]1O [Sucrose]
Total of sweetness ranks ([4]; Table 6, 1% Sucrose reference, 10 panelists): 33 | Sweetness rank by panelist ([4]; Table 6, 1.5% Sucrose reference): 4 and 5 | Total of sweetness ranks ([4]; Table 6, 1.5% Sucrose reference, 10 panelists): 47 | Total of sweetness ranks ([4]; Table 9, 0.5% Sucrose reference, 6 panelists): 8 | Sweetness rank by panelist ([4]; Table 9, 1% Sucrose reference): 3 and 2 and 4 | Total of sweetness ranks ([4]; Table 9, 1% Sucrose reference, 6 panelists): 19 | Sweetness rank by panelist ([4]; Table 9, 1.5% Sucrose reference): 5 and 4 | Total of sweetness ranks ([4]; Table 9, 1.5% Sucrose reference, 6 panelists): 29 | Total of sweetness ranks ([4]; Table 10, Sucrose 0.5% reference, 7 panelists): 14 | Total of sweetness ranks ([4]; Table 10, Sucrose 1% reference, 7 panelists): 23 | Sweetness rank by panelist ([4]; Table 10, Sucrose 1.5% reference): 5 | Total of sweetness ranks ([4]; Table 10, Sucrose 1.5% reference, 7 panelists): 35 | Sweetness rank by panelist ([4]; Table 11, Sucrose 0.5% reference): 1 and 2 | Total of sweetness ranks ([4]; Table 11, Sucrose 0.5% reference, 7 panelists): 8 | Sweetness rank by panelist ([4]; Table 11, Sucrose 1% reference): 4 and 2 and 3 | Total of sweetness ranks ([4]; Table 11, Sucrose 1% reference, 7 panelists): 24 | Sweetness rank by panelist ([4]; Table 11, Sucrose 1.5% reference): 5 | Total of sweetness ranks ([4]; Table 11, Sucrose 1.5% reference, 7 panelists): 35 | Total of sweetness ranks ([4]; Table 12, Sucrose 0.5% reference, 7 panelists): 9 | Sweetness rank by panelist ([4]; Table 12, Sucrose 1% reference): 2 and 3 | Total of sweetness ranks ([4]; Table 12, Sucrose 1% reference, 7 panelists): 17 | Sweetness rank by panelist ([4]; Table 12, Sucrose 1.5% reference): 3 and 4 | Total of sweetness ranks ([4]; Table 12, Sucrose 1.5% reference, 7 panelists): 27 | Total of sweetness ranks ([4]; Table 13, 0.5% Sucrose reference, 9 panelists): 15 | Sweetness rank by panelist ([4]; Table 13, 1% Sucrose reference): 3 and 4 and 2 | Total of sweetness ranks ([4]; Table 13, 1% Sucrose reference, 9 panelists): 31 | Sweetness rank by panelist ([4]; Table 13, 1.5% Sucrose reference): 5 and 4 | Total of sweetness ranks ([4]; Table 13, 1.5% Sucrose reference, 9 panelists): 44

C[C@H](CC[C@@H](O[C@@H]1O[C@H](CO[C@@H]2O[C@H](CO)[C@@H](O)[C@H](O)[C@H]2O)[C@@H](O)[C@H](O)[C@H]1O[C@@H]1O[C@H](CO)[C@@H](O)[C@H](O)[C@H]1O)C(C)(C)O)[C@H]1CC[C@@]2(C)[C@@H]3CC=C4[C@@H](CC[C@H](O[C@@H]5O[C@H](CO[C@@H]6O[C@H](CO)[C@@H](O)[C@H](O)[C@H]6O)[C@@H](O)[C@H](O)[C@H]5O)C4(C)C)[C@]3(C)[C@@H](O)C[C@]12C [11-epi-mogroside V, 3-O-β-D-glucopyranosyl(1→6)-β-D-glucopyranosyl-11β-OH-mogrol-24-O-β-D-glucopyranosyl-(1→2)-[β-D-glucopyranosyl-(1→6)]-β-D-glucopyranosyl]
Astringent, average score ([1]; Table 20, 25 ppm): 0 | Lingering Sweet, average score ([1]; Table 20, 25 ppm): 0 | Overall Sweet, average score ([1]; Table 20, 25 ppm): 0.17 | Upfront Sweet, average score ([1]; Table 20, 25 ppm): 0.33 | Volatile Off-Note, average score ([1]; Table 20, 25 ppm): 0 | Sweet equivalence concentration to sucrose ([5]; 374 ppm in water): 1.31 % sucrose | Iso-sweet potency [5]: 35 times of sweetness of sucrose

3-O-β-D-glucopyranosyl(1→6)-β-D-glucopyranosyl-mogrol-24-O-β-D-glucopyranosyl-(1→6-[β-D-glucopyranosyl-(1→4)-β-D-glucopyranosyl-(1→2)]-β-D-glucopyranosyl [iso-mogroside VI]
Comments ([1]; Table 20, 25 ppm in 5% sucrose and 0.03% citric acid): Slightly acidic | Astringent, average score ([1]; Table 20, 25 ppm): 0 | Lingering Sweet, average score ([1]; Table 20, 25 ppm): 0.2 | Overall Sweet, average score ([1]; Table 20, 25 ppm): 0.2 | Upfront Sweet, average score ([1]; Table 20, 25 ppm): 0.2 | Volatile Off-Note, average score ([1]; Table 20, 25 ppm): 0 | Sweet equivalence concentration to sucrose ([5]; 100 ppm in water): 0.91 % sucrose | Iso-sweet potency [5]: 91 times of sweetness of sucrose

C[C@H](CC[C@@H](O[C@@H]1O[C@H](CO[C@@H]2O[C@H](CO)[C@@H](O)[C@H](O)[C@H]2O)[C@@H](O)[C@H](O)[C@H]1O[C@@H]1O[C@H](CO)[C@@H](O)[C@H](O)[C@H]1O)C(C)(C)O)[C@H]1CC[C@@]2(C)[C@H]3CC=C4[C@@H](CC[C@H](O[C@@H]5O[C@H](CO)[C@@H](O)[C@H](O)[C@H]5O)C4(C)C)[C@]3(C)[C@H](O)C[C@]12C [Siamenoside]
Astringent, average score ([1]; Table 16, 25 ppm): 0.4 | Lingering Sweet, average score ([1]; Table 16, 25 ppm): 0.6 | Overall Sweet, average score ([1]; Table 16, 25 ppm): 1.8 | Upfront Sweet, average score ([1]; Table 16, 25 ppm): 1.4 | Volatile Off-Note, average score ([1]; Table 16, 25 ppm): 0.2 | Taste description [2]: more sweet body, sweeter, rounder with a little more upfront and more round lasting sweet | Sweet quality compared to Luo Han Guo extract [2]: better than Luo Han Guo extract in terms of sweet quality | Average Score ([3]; 25 ppm in 5% (w/v) sucrose): 6.4 | Sweetness enhancer effect [3]: act as sweetness enhancers | Total of sweetness ranks ([4]; Table 11, Siamenoside 20 ppm, 7 panelists): 19 | Sweetness rank by panelist ([4]; Table 11, Siamenoside 25 ppm): 2 and 3 and 4 | Total of sweetness ranks ([4]; Table 11, Siamenoside 25 ppm, 7 panelists): 19

C[C@H](CC[C@@H](O[C@@H]1O[C@H](CO[C@H]2O[C@H](CO)[C@H](O)[C@H](O)[C@H]2O)[C@@H](O)[C@H](O)[C@H]1O[C@@H]1O[C@H](CO)[C@@H](O)[C@H](O)[C@H]1O)C(C)(C)O)[C@H]1CC[C@@]2(C)[C@H]3CC=C4[C@@H](CC[C@H](O[C@@H]5O[C@H](CO[C@@H]6O[C@H](CO)[C@@H](O)[C@H](O)[C@H]6OC6O[C@H](CO)[C@@H](O)[C@H](O)[C@H]6O)[C@@H](O)[C@H](O)[C@H]5O)C4(C)C)[C@]3(C)[C@H](O)C[C@]12C (stereo partly shown) [Neomogroside]
Astringent, average score ([1]; Table 16, 30 ppm): 0 | Lingering Sweet, average score ([1]; Table 16, 30 ppm): 0.4 | Overall Sweet, average score ([1]; Table 16, 30 ppm): 1.4 | Upfront Sweet, average score ([1]; Table 16, 30 ppm): 1 | Volatile Off-Note, average score ([1]; Table 16, 30 ppm): 0 | Taste description [2]: sweetness, but slightly bitter aftertaste | Sweet quality compared to Luo Han Guo extract [2]: better than Luo Han Guo extract in terms of sweet quality | Average Score ([3]; 30 ppm in 5% (w/v) sucrose): 6.35 | Sweetness enhancer effect [3]: act as sweetness enhancers | Total of sweetness ranks ([4]; Table 13, 25 ppm Neomogroside, 9 panelists): 16 | Total of sweetness ranks ([4]; Table 13, 30 ppm Neomogroside, 9 panelists): 29
